Results reported in patent publication US11702422B2, “Imidazopyridazines as modulators of IL-17” (Janssen Pharmaceutica NV, priority 2020, dated 2023).
pIC50: −log10 of the molar value.

Tests used:
[1] = tested on: IL-17A-induced G-CSF production in human normal keratinocyte (NHK); test: NHK Assay: IL-17A-induced G-CSF production in human normal keratinocytes; assay type: cell-based; settings: adult normal human keratinocytes, IL-17A 5 ng/mL, 24 h, simple average if tested more than once
Method in brief: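 G-CSF released by primary adult human keratinocytes after 24 h at 37° C was quantified by HTRF via standard curve to give IC50. Stimulus was 5 ng/mL IL-17A pre-mixed 1 h at rt with compound dilutions, in 5% FBS and 0.2% DMSO. Cell viability was assessed in parallel with CellTiter-Glo.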

[2] = target: IL-17A(FLAG-Tagged): IL-17RA(His-Tagged) (Homo sapiens, UniProt Q16552, K93Q); test: IL-17A(FLAG-Tagged): IL-17RA(His-Tagged) Binding Disruption Eu-HTRF Assay; settings: IL-17A/IL-17RA binding disruption, simple average if tested more than once
Method in brief: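 IC50 comes from a one-site competition fit of the HTRF 665/620 nm ratio. Compound dilutions (2-fold, 22 points) were held 1 h rt with FLAG-tagged IL-17A dimer, then His-tagged IL-17RA plus Eu-cryptate anti-FLAG and D2 anti-His antibodies were added for 2 h rt.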

Sequence of UniProt Q16552 (Q16552 with tags, fused parts or gaps K93Q): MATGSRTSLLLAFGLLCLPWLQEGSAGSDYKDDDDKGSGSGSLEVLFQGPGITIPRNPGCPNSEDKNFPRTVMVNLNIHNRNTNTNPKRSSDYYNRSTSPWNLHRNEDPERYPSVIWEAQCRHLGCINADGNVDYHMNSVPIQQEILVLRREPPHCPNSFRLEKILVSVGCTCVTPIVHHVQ

O=C(CC1CC(F)(F)C1)NC(c1cnn2cc([C@@H](NC(=O)c3cnn(CCC(F)(F)F)c3)C3CCC(F)(F)CC3)nc2c1)C1CC1 (single isomer, unassigned) [Example 8, N—((S)-(7-((R*)-Cyclopropyl(2-(3,3-difluorocyclobutyl)acetamido)methyl)imidazo[1,2-b]pyridazin-2-yl)(4,4-difluorocyclohexyl)methyl)-1-(3,3,3-trifluoropropyl)-1H-pyrazole-4-carboxamide]
pIC50 [1]: 6.44
pIC50 [2]: 6.66

O=C(CC1CC(F)(F)C1)NC(c1cnn2cc([C@@H](NC(=O)c3cnn(CCC(F)(F)F)c3)C3CCC(F)(F)CC3)nc2c1)C1CC1 (single isomer, unassigned) [Example 9, N—((S)-(7-((S*)-Cyclopropyl(2-(3,3-difluorocyclobutyl)acetamido)methyl)imidazo[1,2-b]pyridazin-2-yl)(4,4-difluorocyclohexyl)methyl)-1-(3,3,3-trifluoropropyl)-1H-pyrazole-4-carboxamide]
pIC50 [1]: < 4.70
pIC50 [2]: 5.08

CC(C)n1nccc1C(=O)N[C@H](c1cn2ncc(C(NC(=O)CC(C(F)(F)F)C(F)(F)F)C3CC3)cc2n1)C1CCC(F)(F)CC1 (single isomer, unassigned) [Example 10, N—((S)-(7-((R*)-Cyclopropyl(4,4,4-trifluoro-3(trifluoromethyl)butanamido)methyl)imidazo[1,2-b]pyridazin-2-yl)(4,4-difluorocyclohexyl)methyl)-1-isopropyl-1H-pyrazole-5-carboxamide]
pIC50 [1]: 7.36
pIC50 [2]: 6.68

CC(C)n1nccc1C(=O)N[C@H](c1cn2ncc(C(NC(=O)CC(C(F)(F)F)C(F)(F)F)C3CC3)cc2n1)C1CCC(F)(F)CC1 (single isomer, unassigned) [Example 11, N-((S)-(7-((S*)-Cyclopropyl(4,4,4-trifluoro-3-(trifluoromethyl)butanamido)methyl)imidazo[1,2-b]pyridazin-2-yl)(4,4-difluorocyclohexyl)methyl)-1-isopropyl-1H-pyrazole-5-carboxamide]
pIC50 [1]: 5.85
pIC50 [2]: 6.16

O=C(CCC(F)(F)F)NC(c1cnn2cc([C@@H](NC(=O)c3ccccc3)C3CCC(F)(F)CC3)nc2c1)C1CC1 (single isomer, unassigned) [Example 12, N—((S)-(7-((R*)-Cyclopropyl(4,4,4-trifluorobutanamido)methyl)imidazo[1,2-b]pyridazin-2-yl)(4,4-difluorocyclohexyl)methyl)benzamide]
pIC50 [1]: 6.74
pIC50 [2]: 7.07

CC(C)n1nccc1C(=O)N[C@H](c1cn2ncc(C(NC(=O)CCC(F)(F)F)C3CC3)cc2n1)C1CCC(F)(F)CC1 (single isomer, unassigned) [Example 14, N—((S)-(7-((R*)-Cyclopropyl(4,4,4-trifluorobutanamido)methyl)imidazo[1,2-b]pyridazin-2-yl)(4,4-difluorocyclohexyl)methyl)-1-isopropyl-1H-pyrazole-5-carboxamide]
pIC50 [1]: 7.30
pIC50 [2]: 6.92

CC(C)n1nccc1C(=O)N[C@H](c1cn2ncc(C(NC(=O)CCC(F)(F)F)C3CC3)cc2n1)C1CCC(F)(F)CC1 (single isomer, unassigned) [Example 15, N—((S)-(7-((S*)-Cyclopropyl(4,4,4-trifluorobutanamido)methyl)imidazo[1,2-b]pyridazin-2-yl)(4,4-difluorocyclohexyl)methyl)-1-isopropyl-1H-pyrazole-5-carboxamide]
pIC50 [1]: 5.32
pIC50 [2]: 5.72

O=C(CC(C(F)(F)F)C(F)(F)F)NC(c1cnn2cc([C@@H](NC(=O)c3ccccc3)C3CCC(F)(F)CC3)nc2c1)C1CC1 (single isomer, unassigned) [Example 16, N—((S)-(7-((R*)-Cyclopropyl(4,4,4-trifluoro-3-(trifluoromethyl)butanamido)methyl)imidazo[1,2-b]pyridazin-2-yl)(4,4-difluorocyclohexyl)methyl)benzamide]
pIC50 [1]: 6.89
pIC50 [2]: 6.89

O=C(CC(C(F)(F)F)C(F)(F)F)NC(c1cnn2cc([C@@H](NC(=O)c3ccccc3)C3CCC(F)(F)CC3)nc2c1)C1CC1 (single isomer, unassigned) [Example 17, N—((S)-(7-((S*)-Cyclopropyl(4,4,4-trifluoro-3-(trifluoromethyl)butanamido)methyl)imidazo[1,2-b]pyridazin-2-yl)(4,4-difluorocyclohexyl)methyl)benzamide]
pIC50 [1]: 5.92
pIC50 [2]: 5.89

O=C(CCC(F)(F)F)NC(c1cnn2cc([C@@H](NC(=O)c3cnn(CCC(F)(F)F)n3)C3CCC(F)(F)CC3)nc2c1)C1CC1 (single isomer, unassigned) [Example 18, N—((S)-(7-((R*)-Cyclopropyl(4,4,4-trifluorobutanamido)methyl)imidazo[1,2-b]pyridazin-2-yl)(4,4-difluorocyclohexyl)methyl)-2-(3,3,3-trifluoropropyl)-2H-1,2,3-triazole-4-carboxamide]
pIC50 [1]: 6.38
pIC50 [2]: 6.72

O=C(CCC(F)(F)F)NC(c1cnn2cc([C@@H](NC(=O)c3cnn(CCC(F)(F)F)n3)C3CCC(F)(F)CC3)nc2c1)C1CC1 (single isomer, unassigned) [Example 19, N—((S)-(7-((S*)-Cyclopropyl(4,4,4-trifluorobutanamido)methyl)imidazo[1,2-b]pyridazin-2-yl)(4,4-difluorocyclohexyl)methyl)-2-(3,3,3-trifluoropropyl)-2H-1,2,3-triazole-4-carboxamide]
pIC50 [1]: 5.42
pIC50 [2]: 5.41

O=C(CC1CC(F)(F)C1)NC(c1cnn2cc([C@@H](NC(=O)c3ccn(CCC(F)(F)F)n3)C3CCC(F)(F)CC3)nc2c1)C1CC1 (single isomer, unassigned) [Example 20, N—((S)-(7-((R*)-Cyclopropyl(2-(3,3-difluorocyclobutyl)acetamido)methyl)imidazo[1,2-b]pyridazin-2-yl)(4,4-difluorocyclohexyl)methyl)-1-(3,3,3-trifluoropropyl)-1H-pyrazole-3-carboxamide]
pIC50 ([1]; Homo sapiens, Keratinocyte): 6.19
pIC50 [2]: 6.80

O=C(CCC(F)(F)F)NC(c1cnn2cc([C@@H](NC(=O)c3ccn(CCC(F)(F)F)n3)C3CCC(F)(F)CC3)nc2c1)C1CC1 (single isomer, unassigned) [Example 21, N—((S)-(7-((R*)-Cyclopropyl(4,4,4-trifluorobutanamido)methyl)imidazo[1,2-b]pyridazin-2-yl)(4,4-difluorocyclohexyl)methyl)-1-(3,3,3-trifluoropropyl)-1H-pyrazole-3-carboxamide]
pIC50 ([1]; Homo sapiens, Keratinocyte): 6.14
pIC50 [2]: 6.64

O=C(CC1CC(F)(F)C1)NC(c1cnn2cc([C@@H](NC(=O)c3cnn(CCC(F)(F)F)n3)C3CCC(F)(F)CC3)nc2c1)C1CC1 (single isomer, unassigned) [Example 22, N—((S)-(7-((R*)-Cyclopropyl(2-(3,3-difluorocyclobutyl)acetamido)methyl)imidazo[1,2-b]pyridazin-2-yl)(4,4-difluorocyclohexyl)methyl)-2-(3,3,3-trifluoropropyl)-2H-1,2,3-triazole-4-carboxamide]
pIC50 ([1]; Homo sapiens, Keratinocyte): 6.49
pIC50 [2]: 6.85

Cn1nccc1C(=O)N[C@H](c1cn2ncc(C(NC(=O)CCC(F)(F)F)C3CC3)cc2n1)C1CCC(F)(F)CC1 (single isomer, unassigned) [Example 23, N—((S)-(7-((R*)-Cyclopropyl(4,4,4-trifluorobutanamido)methyl)imidazo[1,2-b]pyridazin-2-yl)(4,4-difluorocyclohexyl)methyl)-1-methyl-1H-pyrazole-5-carboxamide]
pIC50 ([1]; Homo sapiens, Keratinocyte): 7.09
pIC50 [2]: 7.27
